Test results from patent US20230416297A1, “ANDROGEN RECEPTOR MODULATORS” (TRUSTEES OF DARTMOUTH COLLEGE, priority 2020, published 2023).
“And” between values parts separate entries of the source, which are not always exact repeats. Identical values can stand only once.

Assays:
androgen receptor [1] = target: T1, androgen receptor (Homo sapiens, UniProt P10275); assay: human AR antagonist assay (Indigo Biosciences); format: cell-based; set-up: purchased Indigo Biosciences
T1 sequence (P10275 1-920): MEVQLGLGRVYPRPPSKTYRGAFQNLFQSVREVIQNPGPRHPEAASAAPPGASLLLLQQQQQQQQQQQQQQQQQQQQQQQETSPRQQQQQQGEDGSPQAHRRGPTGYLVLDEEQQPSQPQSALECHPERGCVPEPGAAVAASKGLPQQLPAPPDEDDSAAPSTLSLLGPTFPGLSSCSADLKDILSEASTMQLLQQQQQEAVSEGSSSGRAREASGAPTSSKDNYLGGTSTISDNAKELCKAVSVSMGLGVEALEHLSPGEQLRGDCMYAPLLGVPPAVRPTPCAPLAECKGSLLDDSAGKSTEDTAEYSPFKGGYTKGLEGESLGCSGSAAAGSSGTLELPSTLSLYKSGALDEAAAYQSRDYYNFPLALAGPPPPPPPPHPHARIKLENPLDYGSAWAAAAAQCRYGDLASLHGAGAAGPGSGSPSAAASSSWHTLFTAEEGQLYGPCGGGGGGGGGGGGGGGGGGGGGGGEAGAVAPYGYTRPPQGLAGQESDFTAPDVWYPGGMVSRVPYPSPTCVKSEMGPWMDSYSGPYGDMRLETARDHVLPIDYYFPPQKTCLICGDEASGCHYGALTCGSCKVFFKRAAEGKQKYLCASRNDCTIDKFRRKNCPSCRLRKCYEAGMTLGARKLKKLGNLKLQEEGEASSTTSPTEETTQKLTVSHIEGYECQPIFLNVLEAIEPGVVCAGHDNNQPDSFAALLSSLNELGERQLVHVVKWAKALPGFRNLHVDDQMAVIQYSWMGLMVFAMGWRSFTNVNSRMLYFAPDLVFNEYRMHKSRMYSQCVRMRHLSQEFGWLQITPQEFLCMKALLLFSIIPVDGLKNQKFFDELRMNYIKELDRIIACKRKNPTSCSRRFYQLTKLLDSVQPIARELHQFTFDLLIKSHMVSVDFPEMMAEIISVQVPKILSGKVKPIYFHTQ
Excerpt: (§1) The activity of a compound can be determined using various known methods. For example, AR assays can be used. Such AR assays include binding assays using, for example, cells transfected with the human androgen receptor. Several cell based model systems that allow sensitive detection and monitoring of steroids or other compounds with AR bioactivity are known. Most cell based AR reporter models use transgenic gene constructs that include an androgen response element (ARE) that controls reporter gene (e.g., lucifersrase) expression. For example, a human AR Reporter Assay System is commercially available from Indigo Biosciecnes. The principle application of such an assay product is to quantify functional activities, either agonist or antagonist, that a compound may exert against the human androgen receptor. […] In addition, the anti-proliferative activity of a compound can be determined using various known methods, including in vitro and in vivo antiproliferative assays using cancer cell lines such as a prostate cancer cell line.
(§2) The activity of certain compounds were tested in a human AR agonist assay and a human AR antagonist assay (Indigo Biosciences).

androgen receptor [2] = target: T1, androgen receptor; assay: AR binding (Ki, Table A)
Excerpt: as §1

androgen receptor [3] = target: T1, androgen receptor; assay: human AR agonist assay (Indigo Biosciences); format: cell-based; set-up: purchased Indigo Biosciences; settings: for HillSlope: agonist mode, Table 1 / FIG. 1
Excerpt: as §1, §2

[4] = antagonist mode, Table 2 / FIG. 2
[5] = antagonist mode, Table 3 / FIG. 3

Compound | IC50 (androgen receptor [1]; Table A) | Ki (androgen receptor [2]) | HillSlope (androgen receptor [3]) | HillSlope (androgen receptor [1]; [4]) | IC50 (androgen receptor [1]; [4]) | further results
C[C@@]12CC[C@]3(C)C(=C1C[C@@H](O)C2)CCC1=CC(=O)CC[C@H]13 [Compound 105] | 1500 nM | – | – | – | – | –
CC(C)(O)C(=O)Nc1ccc([N+](=O)[O-])c(C(F)(F)F)c1 [hydroxyflutamide, reference compound] | – | – | – | – | – | HillSlope (androgen receptor [1]): 1.305 and 1.653
CC(=O)O[C@@H]1CC2=C3CCC4=CC(=O)CC[C@@H]4[C@@]3(C)CC[C@]2(C)C1 [Compound 101, (9R,10S,13R,16S)-9,13-dimethyl-3-oxo-2,3,6,7,9,10,11,12,13,15,16,17-dodecahydro-1H-cyclopenta[a]phenanthren-16-yl acetate] | 413 nM | 7.35 µM | 1.063 | 2.100 | 413 nM | EC50 (androgen receptor [3]): 10 µM
C[C@@]12CC[C@]3(C)C(=C1C[C@H](O)C2)CCC1=CC(=O)CC[C@H]13 [Compound 104] | 4300 nM | – | – | – | – | –
C[C@]12CC[C@@]3(C)C(=C1C[C@@H](O)C2)CCC1=C[C@@H](O)CC[C@@H]13 [Compound 107] | 4800 nM | – | – | – | – | –
CC(C)CCC[C@]12CC[C@@]3(C)C(=C1C[C@@H](O)C2)CCC1=CC(=O)CC[C@@H]13 [Compound 108] | – | – | – | – | – | HillSlope (androgen receptor [1]; [5]): 1.225
CC(C)CCC[C@]12CC[C@@]3(C)C(=C1C[C@@H](O)C2)CCC1=CC(=O)CC[C@@H]13 [Compound 110] | – | – | – | – | – | HillSlope (androgen receptor [1]; [5]): 0.6338
C[C@]12CC[C@@]3(C)C(=C1C[C@@H](O)C2)CCC1=CC(=O)CC[C@@H]13 [Compound 102, (9R,10S,13R,16S)-16-hydroxy-9,13-dimethyl-1,2,6,7,9,10,11,12,13,15,16,17-dodecahydro-3H-cyclopenta[a]phenanthren-3-one] | 654 nM | 0.919 µM | 1.300 | 1.728 | 654 nM | EC50 (androgen receptor [3]): 23 µM
C[C@]12CC[C@@]3(C)C(=C1C[C@H](O)C2)CCC1=CC(=O)CC[C@@H]13 [Compound 103, (9R,10S,13R,16R)-16-hydroxy-9,13-dimethyl-1,2,6,7,9,10,11,12,13,15,16,17-dodecahydro-3H-cyclopenta[a]phenanthren-3-one] | 1240 nM | 3.46 µM | ≈1.247 | 1.906 | 1240 nM | –
